Structures are written as SMILES.

Data set [1] deals with ChoRE-LUC (ChoRE driven transcription). In words: ChoRE-LUC luciferase reporter assay in INS-1E ChoRE-LUC cells (BrightGlo, 24 h, 25 mM glucose). In kind it is cell-based, Rat. The conditions noted are these: 24 h treatment, 25 mM glucose media, 2% FBS. The procedure:
For ReFRAME library screening, 10 nL of 2 mM DMSO stock concentrations of compound were prespotted into 5 µL of assay medium (RPMI with 2% FBS, 10 mM HEPES, 1 mM sodium pyruvate, 25 mM D-glucose (Sigma), and 1% penicillin/streptomcycin) in white 384-well plates (Grenier) using an Echo Acoustic Liquid Handler instrument (Labcyte) before the addition of INS-1E ChoRE-LUC cells (5000 cells in 45 µL assay medium per well). Cells were incubated for 24 h before 30 µL of BrightGlo Luciferase Assay solution (diluted 1:3 in water, Promega) was added to each well and luminescence signal values were recorded with an Envision plate reader (PerkinElmer). This protocol was used as the ReFRAME library was supplied from off-site and necessitated pre-spotting for efficient transfer of materials. For the screening of all other libraries, which was performed in-house, INS-1E ChoRE-LUC cells were plated in a white 384-well plate (5000 cells in 50 µL assay medium per well) and incubated for 24 h. 100 nL of DMSO stock concentrations of compound were transferred to each well using a Bravo instrument with a pintool head (Agilent). Cells were incubated for 24 h before 30 µL of BrightGlo Luciferase Assay solution was added to each well and luminescence signal values were recorded with an Envision plate reader.
(§1) Reporter activity and cell viability data was normalized to the DMSO control wells in each plate. Ten or twelve dose-response points and three biological replicates were used to determine dose-response curves using the four-parameter inhibitor dose-response curve fitting function in Prism software (Graphpad). All graphed data are plotted as the mean and the s.e.m denoted with error bars.
To establish a reliable assay with a suitable dynamic range for high-throughput screening, we first optimized the composition of the DNA regulatory sequences within the ChoRE-LUC reporter. […] To determine whether this combination of regulatory elements was robust enough to test general ChoRE activity, we constructed six pGL4-based luciferase reporter plasmids with different numbers and/or combinations of ChoRE and FOXO sequences from the promoter of the human TXNIP gene (Fig. 3a). The wild-type (WT) sequence represents the intact minimal promoter of the TXNIP gene (GRCh38.p14, chr1:145,996,639–145,996,759). The six plasmids were transiently transfected into INS-1E cells using cationic lipid-based transfection reagents and the induction of luciferase after 24 h in 25 mM glucose containing media was compared (Fig. 3b). In addition, we tested various glucose concentrations in the assay media to determine the concentration that results in the highest stimulation. […] The WT ChoRE-LUC construct was then used to generate an INS-1E stable cell line (INS-1E ChoRE-LUC) for screening in 384-well plate format. For high-throughput screening, the treatment time, serum percentage in media, and cell count per well were optimized further. The final assay design consisted of 5,000 INS-1E ChoRE-LUC cells per well of a 384-well plate in 25 mM glucose media supplemented with 2% FBS and a compound treatment time of 24 h.
(In general: In a reporter assay the amount or activity of a reporter protein is the signal.)

Data set [2] can be described thus: Cytotoxicity screening (CellTiterGlo cell viability) in INS-1E ChoRE-LUC cells. In kind it is cell-based. Conditions: rat, 24 h treatment. The procedure: INS-1E ChoRE-LUC cells were plated in a white 384-well plate (5000 cells in 50 µL assay medium per well) and incubated for 24 h. 100 nL of DMSO stock concentrations of compound were transferred to each well using a Bravo instrument (Agilent) affixed with a pintool head (V&P Scientific). Cells were incubated for 24 h before 30 µL of CellTiterGlo Cell Viability Assay solution (diluted 1:6 in water, Promega) was added to each well and luminescence signal values were recorded with an Envision plate reader.
as §1
In general terms: In ATP-based viability assays light output follows the ATP content of the culture.

Data set [3] relates to TXNIP expression. Also noted: method as in PMID 28502980. Conditions: compared with the ChoRE-LUC IC50 of this paper; read-out: previously reported measurement (IC50); cited from earlier work.
[4] abbreviates: Rattus norvegicus, INS-1E, 24 h.

On to `O=C(NCc1ccco1)C(=Cc1ccc(Cl)c(Cl)c1)C(=O)NCc1ccco1` [Y070-0096], for which the IC50 in data set [1] (setting [4]) came to 1.37 µM. The midpoint of inhibition in data set [2], the IC50 at 24 h, lay at 3.98 µM.

For `CC[C@H](Nc1nc(NCc2cnc(C)cc2C)c2ncn(C(C)C)c2n1)[C@@H](C)O` [CYC065, reference compound], the half-maximal inhibitory concentration (IC50) in data set [1] (setting [4]) came to 0.58 µM. This compound showed an IC50 at 24 h in data set [2] of 0.85 µM.

For the compound `O=C(c1ccc(F)c(Cl)c1)N1CC2(CC(CCOCc3cccc(F)c3)CO2)C1` (stereo not shown) [SD60-0151], in data set [1] (setting [4]), the IC50 was 9.5 µM. This compound came in with an IC50 at 24 h in data set [2] greater than 20 µM.

Regarding `CC(=O)c1ccc(OCCn2cnc3c(N)ncnc32)cc1` [W2476, reference compound], the IC50 is 1.7 µM in data set [3] and 1.33 µM in data set [1].

`Cc1cc(C)cc(C(=O)N2CC3(CC(CCOCc4cccc(F)c4)CO3)C2)c1` (stereo not shown) [SD60-0149]: the IC50 in data set [1] (setting [4]) amounted to 10.6 µM. In data set [2], this compound returned an IC50 at 24 h greater than 20 µM.

On to `CCOC(=O)c1[nH]c2ccccc2c1NC(=O)/C=C/c1ccc(OC)c(OC)c1` [C175-0061], for which, in data set [1] (setting [4]), the IC50 is 1.11 µM. In data set [2], this compound had a concentration for half-maximal inhibition (IC50) at 24 h greater than 20 µM.

In the case of `FC(F)(F)c1ccc(CN2CCC(F)(c3noc(-c4ccncc4)n3)C2)cc1` (stereo not shown) [SC41-0173], in data set [1] (setting [4]), the IC50 amounted to 8.25 µM. In addition, the half-inhibitory concentration (IC50) at 24 h in data set [2] was greater than 20 µM.

As to `CCS(=O)(=O)Oc1ccc(CN(Cc2ccc(F)cc2)C(=O)/C=C/c2ccccc2)cc1` [V029-2992], the IC50 came to 2.9 µM in data set [1] and 2.85 µM in data set [1] (setting [4]). For the same compound, the IC50 at 24 h in data set [2] was greater than 20 µM.

As to `Fc1cc(Br)ccc1CN1CCC(F)(c2noc(-c3ccncc3)n2)C1` (stereo not shown) [SC41-0178], in data set [1] (setting [4]), the 50% inhibitory concentration (IC50) was 9.83 µM. The same compound came in with a 50% inhibitory concentration (IC50) at 24 h in data set [2] greater than 20 µM.

For orientation: IC50 means the point on the concentration scale where inhibition reaches its midpoint.

The record behind these values is paper PMC10550954, “A high throughput screen for pharmacological inhibitors of the carbohydrate response element” (Scientific Data, 2023).
